Results published in article PMC5216903 (Febs Letters, 2016).

What was measured:
Test in all cases: two-electrode voltage clamp of Xenopus oocytes, steady-state current
Conditions in all cases: ND96 buffer pH 7.6, -60 mV; Fe(III) complex of DMA
Hv-Zm-Hv = assay type: cell-based, Hordeum vulgare; Zea mays
Zm-Hv-Zm = assay type: cell-based, Zea mays; Hordeum vulgare
HvYS1 = HvYS1 (Hordeum vulgare, UniProt Q2PGC4); assay type: cell-based
ZmYS1 = biological target: T1, ZmYS1 (Zea mays, UniProt Q9AY27); assay type: cell-based
T1 sequence (Q9AY27 1-682): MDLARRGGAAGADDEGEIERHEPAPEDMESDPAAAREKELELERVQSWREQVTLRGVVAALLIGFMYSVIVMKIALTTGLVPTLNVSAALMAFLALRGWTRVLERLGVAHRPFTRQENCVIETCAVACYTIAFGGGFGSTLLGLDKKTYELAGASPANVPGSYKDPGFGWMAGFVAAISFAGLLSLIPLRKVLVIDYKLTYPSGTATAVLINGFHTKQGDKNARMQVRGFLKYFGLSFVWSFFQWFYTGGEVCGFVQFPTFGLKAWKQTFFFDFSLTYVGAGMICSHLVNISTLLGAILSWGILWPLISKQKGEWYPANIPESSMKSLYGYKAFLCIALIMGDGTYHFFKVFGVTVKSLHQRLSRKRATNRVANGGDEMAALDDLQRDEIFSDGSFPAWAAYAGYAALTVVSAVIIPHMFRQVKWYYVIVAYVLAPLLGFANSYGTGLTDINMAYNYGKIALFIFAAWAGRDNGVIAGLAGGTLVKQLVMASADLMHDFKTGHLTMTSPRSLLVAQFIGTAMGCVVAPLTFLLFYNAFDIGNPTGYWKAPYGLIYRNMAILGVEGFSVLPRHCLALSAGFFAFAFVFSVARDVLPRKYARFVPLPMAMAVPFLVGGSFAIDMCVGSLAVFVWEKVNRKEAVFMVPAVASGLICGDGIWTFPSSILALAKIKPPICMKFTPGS

HvYS1, sequence (Q2PGC4 1-678): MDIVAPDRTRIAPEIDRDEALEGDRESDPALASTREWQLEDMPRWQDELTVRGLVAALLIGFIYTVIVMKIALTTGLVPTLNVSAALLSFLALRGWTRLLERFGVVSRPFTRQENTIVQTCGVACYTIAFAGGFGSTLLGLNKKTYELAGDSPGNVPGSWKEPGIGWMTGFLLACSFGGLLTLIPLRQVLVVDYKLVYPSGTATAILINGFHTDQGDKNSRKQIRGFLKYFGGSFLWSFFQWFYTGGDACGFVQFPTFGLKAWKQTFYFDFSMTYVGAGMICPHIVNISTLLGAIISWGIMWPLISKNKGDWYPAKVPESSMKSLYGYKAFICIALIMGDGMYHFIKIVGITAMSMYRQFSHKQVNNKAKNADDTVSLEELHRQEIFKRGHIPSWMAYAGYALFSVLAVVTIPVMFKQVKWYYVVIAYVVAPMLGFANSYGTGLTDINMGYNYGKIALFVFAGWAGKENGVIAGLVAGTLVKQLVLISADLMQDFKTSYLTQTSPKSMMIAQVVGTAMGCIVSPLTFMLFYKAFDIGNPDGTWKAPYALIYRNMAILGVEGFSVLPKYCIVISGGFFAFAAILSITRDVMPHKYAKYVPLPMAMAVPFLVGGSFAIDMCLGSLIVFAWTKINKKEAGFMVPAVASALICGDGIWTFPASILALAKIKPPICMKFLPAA

Km (Hv-Zm-Hv): 60.8 µM
Km (Zm-Hv-Zm): 44.2 µM
Km (HvYS1): 71.8 µM
Km (ZmYS1): 65.3 µM
Structure (SMILES): O=C([O-])[C@H](CCN1CC[C@H]1C(=O)[O-])NCC[C@H](O)C(=O)[O-].[Fe+3] [Fe(III)-DMA]
